According to patent US20030125283A1, “Therapy of proliferative disorders by direct irradiation of cell nuclei with tritiated nuclear targetting agents” (priority 2002, published 2003):

What was measured:
[1] = tested on: 4047 colon cancer cells, BT-20 and MCF-7 breast cancer cell lines; test: Killing of tumor cells in vitro, cell counts and trypan blue viability; type: cell-based, rat (4047), human (BT-20
Protocol: In-vitro experiments were performed using cultured 4047 colon cancer cells as described in Gatenby, R A and Taylor D D (1990) Cancer Res. 50: 7997-8001. 4047 cells (2×10^4) were placed in each well of a 6-well plate and incubated overnight in 1 ml of RPMI-1640 media with 10% fetal bovine serum (FBS). The cells were divided into 4 groups as follows:
Group 4: incubated in unlabelled thymidine at concentrations 1, 2, 3, and 4 mM (so that concentration of thymidine was identical to that of the labeled thymidine in Group 3).
Each group was incubated for 24 hours and then washed 3 times in sterile physiologic saline (PBS). One milliliter of unlabelled media was added and the cells incubated for an additional 48 hours. Subsequently, the cells were washed with PBS, lifted with trypsin, and counted with a hematocytometer. Percent cell viability was determined by exclusion of trypan blue. All measurements were performed in triplicate. Once a dose-response curve was established in the 4047 cell line, identical experiments were conducted with the BT-20 and MCF-7 breast cancer cell lines.

[2] = tested on: BT20 human breast cancer tumors; test: Efficacy of a multiple dose regimen, intratumoral versus i.v. (Example 9); type: in vivo, female nude mice
Protocol: To accomplish this, the superposition method of Sharget and Yu, supra, is used to extend the two compartment pharmacokinetic model presented in Example 6 from the single dose to the multidose case. […] Using the superposition method, the maximum and minimum of the multi-dose regimen can be averaged together to give an estimate of the mean concentration in the tumor during multiple injections (Sharget and Yu, supra).
This dose regimen is tested experimentally as follows.
60 4-6 weeks old female nude mice in 2 groups of 30 mice are used. Each group of 30 mice is further divided into two subgroups (10 control mice and 20 treatment mice). As before, the treatment mice will be divided into subgroups that consist of similar distribution of tumor volumes. In each treatment subgroup, 10×10^6 BT20 human breast cancer cells are inoculated subcutaneously in flanks of the mice as in Example 4. […] Tumors are grown to 300-500 mm^3 in volume.
The mice from one treatment subgroup receive an intratumoral injection of 16 μCi/20 μl normal saline (a dose of 32 μCi/gram of tumor). The dose is repeated every 7 days for a total of 3 doses.

BT-20 tumor xenografts = test: Reduction in tumor volume in the half-life study (Example 7); type: in vivo, Nu/Nu female nude mice; settings: each treatment subgroup, intratumoral 4 to 50 μCi/g tumor
Protocol: BT-20 tumor cells (10 million cells in 0.2 ml PBS) are inoculated into the right flank of each mouse as in Example 4 above. The tumors are grown to volumes of 300-500 mm^3 over the course of 3-4 weeks.
After tumors in all mice have reached the required 300-500 mm^3 volume, each group of 60 is divided into ten subgroups of six animals each.
Reduction in tumor volume is estimated as in Example 4 for each treatment subgroup over the course of the experiment. The data is analyzed by calculating the percentage of tumor reduction as in Example 4. The error in this measurement is determined from the measured standard deviation and the standard formula for calculating the error for a ratio given above in Equation 1. Systemic toxicity is not directly measured, but is monitored as described above in Example 4.

[3] = tested on: Human BT-20 breast cancer tumors; test: Preliminary in vivo dose-response curve, single intratumoral injections (Example 8); parameters: species or system Nu/Nu female nude mice; settings: single intratumoral injection; theoretical
Text: Six experimental groups of 18 4-6 week old Nu/Nu female nude mice (Charles River Laboratory, Wilmington, Mass.) are used. In each of the six groups an additional group of 6 mice serves as an uninoculated control. Thus the total number of experimental mice is 108 and total number of uninoculated control mice is 36.
Each experimental group is then divided into two subgroups: one treatment subgroup of 12 mice and one untreated (but inoculated) control subgroup of six mice. […] Because the tumors have variable growth rates, subgroups are chosen such that the mean tumor volume and standard deviation are similar for each subgroup. […]
The mice are monitored daily and the tumors measured daily by microcaliper for a minimum of 3 weeks or until tumor re-growth begins. Tumor volumes are calculated as in Example 2. Three daily tumor volumes are measured for the first group so that the error in the volume measurement can be determined as in Example 4. The mean volumes and standard deviations are calculated and growth rate curves are monitored during the experiment. The data are expressed as percent difference of the tumor volume at any given time point to its pre-injection volume.
Tumor volume data is analyzed as described above in the in Example 4 by calculating percent tumor reduction and initial tumor volume. Systemic toxicity is not directly measured, but is monitored as described above in Example 4. […]

[4] = mouse, in vivo
Protocol: In the treatment and control groups, 10×10^6 BT-20 human breast cancer cells are inoculated subcutaneously into the flanks of the mice. Animal weights are recorded daily and animals are closely monitored for signs of illness. Approximate tumor volumes are measured every other day using calipers to measure the height (H), width (W), and length (L) of each tumor. Tumor volumes are calculated according to the formula for volume of an ellipsoid V=πHWL/6. Tumors grow to 300-500 mm^3 in approximately 3-4 weeks after inoculation. A set of 6 measurements per day is made on a single tumor in the control group on one day of each week to determine the standard deviation versus volume in the volume measurements.
Tumor growth is monitored for a total of 4 weeks, whereupon the mice are sacrificed and the tumors and other tissue are harvested.
Lines are drawn along the anterior-posterior length of the harvested tumors. In addition, the top, left and right of the harvested tumors is marked. […] A portion of the sample in is placed in Hionic-Fluor LSC cocktail and the radioactivity counted in a scintillation counter. […]
Ten to fifteen microliters of the dissolved tissue or is spotted on a silica gel TLC plate, and the plate is placed in a chromatography chamber containing ˜200 ml of eluant so the dissolved tissue sample is just above the eluant surface. […] The radioactivity is counted in the scintillation counter. […]

[5] = Caro, supra; cited from earlier work

With Cc1cn([C@H]2C[C@H](O)[C@@H](CO)O2)c(=O)[nH]c1=O [^3H-thymidine] the antitumor effect ([1]; 0.1 μCi/ml (concentration used only with 4047 cells)) was “significant antitumor effect”, the “viable tumor cells identified” value ([1]; populations exposed to 1.0 μCi/ml or greater, in most experiments) was “few viable tumor cells” and the “r, tumor regression” value ([2]; i.v. injection 16 μCi (~800 μCi/kg body wt.) once a week for three weeks, after three doses) was “approximately 0.8”. The “r, tumor regression” value ([2]; intratumoral 16 μCi/20 μl saline (32 μCi/gram of tumor) every 7 days, 3 doses) was “approximately zero”, the tumor volume (BT-20 tumor xenografts) was “significant reduction in tumor volume” and the “ED90, minimal effective dose for eradicating tumors in 90% of the treated mice” value [3] was 16 μCi/g tumor. For the same compound, the “share of injected dose retained in the tumor” value [4] was “about 10%”.

For Cc1cn([C@H]2C[C@H](O)[C@@H](CO)O2)c(=O)[nH]c1=O [Unlabelled thymidine, thymidine, reference compound], the “effect on tumor growth” value ([1]; unlabelled thymidine 1, 2, 3, and 4 mM, 24 hours incubation, then 48 hours in unlabelled media) was “no effect on tumor growth”.

In the case of [3H]O[3H] [^3H-water, reference compound], the cytotoxicity ([1]; 0.1-3.0 μCi/ml media, 24 hours incubation, then 48 hours in unlabelled media, ^3H-water effect particularly above 1 μCi/ml, ^3H-thymidine compared with ^3H-water at each dose (p<<0.01)) is reported as “slight cytotoxicity”.

For [3H] [tritium], the effective biological half-life [5] is given as “approximately 12 days”.
